The record followed here is publication PMC5438989, “Protein Biochemistry and Expression Regulation of Cadmium/Zinc Pumping ATPases in the Hyperaccumulator Plants Arabidopsis halleri and Noccaea caerulescens” (Frontiers in Plant Science, 2017).

The target in this assay is T1, NcHMA4 (=TcHMA4) (Noccaea caerulescens, UniProt Q69AX6).
T1 construct: 60-70 kD band on Western blot, so possibly processed; no added tag
T1 sequence (Q69AX6 1-1186): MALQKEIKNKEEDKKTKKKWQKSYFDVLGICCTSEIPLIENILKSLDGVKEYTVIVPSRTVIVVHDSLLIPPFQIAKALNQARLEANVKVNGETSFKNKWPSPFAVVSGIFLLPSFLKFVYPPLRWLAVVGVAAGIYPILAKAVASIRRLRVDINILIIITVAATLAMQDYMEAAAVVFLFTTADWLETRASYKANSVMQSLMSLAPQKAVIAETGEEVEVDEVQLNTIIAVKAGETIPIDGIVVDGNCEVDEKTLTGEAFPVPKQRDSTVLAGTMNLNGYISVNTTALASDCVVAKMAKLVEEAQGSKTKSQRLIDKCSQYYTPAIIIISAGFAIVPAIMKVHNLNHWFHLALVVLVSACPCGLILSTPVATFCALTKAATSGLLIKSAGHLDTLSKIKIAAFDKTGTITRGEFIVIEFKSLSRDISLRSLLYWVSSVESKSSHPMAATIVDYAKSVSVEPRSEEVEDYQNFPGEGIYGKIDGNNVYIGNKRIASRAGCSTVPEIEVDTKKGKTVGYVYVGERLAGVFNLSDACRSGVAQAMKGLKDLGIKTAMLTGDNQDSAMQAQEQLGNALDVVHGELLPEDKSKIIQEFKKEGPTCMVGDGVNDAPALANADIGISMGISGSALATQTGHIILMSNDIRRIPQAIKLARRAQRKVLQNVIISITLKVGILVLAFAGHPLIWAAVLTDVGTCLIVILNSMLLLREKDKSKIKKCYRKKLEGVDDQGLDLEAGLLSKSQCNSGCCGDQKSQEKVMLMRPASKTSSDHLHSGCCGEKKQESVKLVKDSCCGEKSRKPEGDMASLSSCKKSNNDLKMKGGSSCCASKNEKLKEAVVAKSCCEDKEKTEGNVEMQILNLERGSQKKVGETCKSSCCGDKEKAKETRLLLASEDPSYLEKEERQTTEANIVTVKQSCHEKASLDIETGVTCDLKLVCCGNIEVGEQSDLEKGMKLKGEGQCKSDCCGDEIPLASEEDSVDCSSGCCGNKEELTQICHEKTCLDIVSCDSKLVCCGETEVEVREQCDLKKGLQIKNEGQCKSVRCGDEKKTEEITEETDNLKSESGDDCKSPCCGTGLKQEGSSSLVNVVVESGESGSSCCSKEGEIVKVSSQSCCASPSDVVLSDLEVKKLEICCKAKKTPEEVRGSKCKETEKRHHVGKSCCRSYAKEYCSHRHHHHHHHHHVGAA
Nature of the assay: ATPase assay by phosphate release; F5 electrochromic dye fluorescence. Type of assay: biochemical. The note with it: Cd2+ or Zn2+ activated; dye assay: 5 mM ATP, protein in phosphatidylcholine vesicles, 20 °C.

Regarding `Nc1ncnc2c1ncn2[C@@H]1O[C@H](COP(=O)(O)OP(=O)(O)OP(=O)(O)O)[C@@H](O)[C@H]1O` [ATP], the “ATPase assay by phosphate release; F5 electrochromic dye fluorescence” value was “Addition of ATP caused dropping of fluorescence when added to an assay containing active enzyme”.
